According to patent US6939850B2, “Altered human interleukin-1β convertase (ICE), NEDD-2, and C. elegans ced-3 polypeptides and uses therefor” (Massachusetts Institute of Technology, priority 1992, dated 2005):
Square brackets hold non-standard residues; d marks the D form. * marks the point of attachment. CH2Cl = ClC*

Key:
ICE = target: T1, ICE (Homo sapiens, UniProt P29466); settings: protease activity of ICE; cited from earlier work
T1 sequence (P29466 120-297): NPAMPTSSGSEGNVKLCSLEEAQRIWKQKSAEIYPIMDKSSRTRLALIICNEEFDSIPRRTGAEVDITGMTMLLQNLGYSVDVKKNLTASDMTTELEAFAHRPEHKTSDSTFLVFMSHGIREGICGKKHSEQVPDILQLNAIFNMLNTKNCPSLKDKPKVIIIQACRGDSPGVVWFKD
T1 sequence (P29466 317-404): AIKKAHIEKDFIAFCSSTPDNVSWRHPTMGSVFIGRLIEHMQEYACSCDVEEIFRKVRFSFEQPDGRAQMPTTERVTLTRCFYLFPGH

[1] = test system: undifferentiated neurons and precursor cells in the neural tube; test: Cell death in the early neural tube in vivo; parameters: species or system chick
lumbar motoneurons = test: Naturally occurring lumbar motoneuron cell death in vivo; parameters: species or system chick; settings: mean ±SD; for Pyknotic Lumbar Motoneurons on E8: 15 hours post treatment, single administration of 400 μg on E8; for Healthy Motoneurons (lumbar) on E9 / Pyknotic Motoneurons (lumbar) on E9: 24 hours post treatment
Method: In the first model, embryos were treated with a single dose of an ICE inhibitor or control protease inhibitor on embryonic day 8 (E8), the time of maximum naturally occurring motoneuron cell death (Hamburger et al., J. Morph. 88:49-92 (1951)). Embryos treated in vivo with the peptide inhibitors appeared to develop normally and there were no gross abnormalties. […] 24 hours after treatment there is a similar reduction in the number of pyknotic cells and a significant increase in the number of healthy motoneurons (Table 6B). […] The ability of ICE inhibitors to block the naturally occurring cell death of interdigital cells in the developing limb was also studied. These cells undergo PCD as a means of sculpting the digits in many vertebrates. When embryos were treated with either ICE inhibitor on embryonic days, E6 and E7, there was a substantial reduction in the number of pyknotic cells between the digits of the hindlimb (FIG. 14).
Peptides. Two peptide inhibitors of ICE, Acetyl-Tyr-Val-Ala-Asp-aldehyde (Ac-YVAD-CHO) and Acetyl-Tyr-Val-Ala-Asp-chloromethylketone (Ac-YVAD-CMK) and two control peptide inhibitors, Acetyl-Leu-Leu-Arg-aldehyde (Ac-LLR-CHO; Leupeptin) and n-tosyl-Lys-chloromethyl-ketone (Tos-Lys-CMK) were synthesized by Bachem Biosciences (King of Prussia, Pa.) and shown by thin layer chromatography and HPLC to be greater than 98% pure. […] Methods for administration of peptides to examine effects on naturally occurring motoneuron cell death in vivo. Although cell death of lumbar motoneurons occurs between E6 and E12, the peak period of death (i.e., the greatest number of pyknotic cells) occurs on E8 (Oppenheim et al., J Comp. Neurol. 177:87-112 (1978)). For these experiments, embryos were given a single administration of an agent on E8 0 hr and sacrificed 15 hours later. […] Ac-YVAD-CMK and Tos-Lys-CMK were administered in a solution of DMSO/BSA, whereas Ac-YVAD-CHO and leupeptin (Sigma) were in BSA alone. The solutions (50-100 μl) were dropped onto the highly vascularized chorioallantoic membrane through a window in the shell. The control groups included both DMSO and BSA or vehicle alone. Embryos were killed and staged by the Hamburger-Hamilton series (Hamburger and Hamilton, J. Morph. 88:49-92 (1951)). The thoraco-lumbar spinal cord was dissected, fixed in Camoys or Bouins fixative, processed for paraffin histology, serially sectioned (10-12 μm) and stained with either thionin or hematoxylin and eosin. Pyknotic motoneurons were identified based on criteria previously described (Chu-Wang and Oppenheim, J. Comp. Neurol. 177:33-58 (1978); Clarke and Oppenheim In Methods in Cell Biology Series; Cell Death; eds: Schwartz and Osborne. Academic Press. New York, N.Y. In press.) and were counted in every 10th or 20th section through the entire lumbar enlargement. The total number of pyknotic cells were then estimated by multiplying these values by 10 or 20. All cell counts were performed by individuals blinded with regard to drug treatment of the embryos. Methods for limb bud removal experiments. A unilateral limb bud removal was performed on E2 as described previously (Oppenheim et al., J. Comp. Neurol. 177:87-112 (1978)). Because induced cell death following limb removal begins on E5 (before that there is no difference in the number of motoneurons between the operated or unoperated sides) embryos were given one treatment of Ac-YVAD-CHO (40 μg) or BSA (control) at E5-0 hr and another at E5-12 hours (total peptide administered was 80 μg). Animals were killed at E6-0 hr. Methods were the same as described above except the section thickness was 6-8 μm (see Method for Administration of Peptides, above). Methods for limb bud interdigital regions. […]

chick spinal motoneurons = test: Motoneuron culture deprived of muscle extract, survival; type: cell-based; settings: without muscle extract, treated between 14 and 24 hours, counted after 3 days
Excerpt: A tissue culture model system that allows isolation of a relatively pure population of motoneurons whose survival is dependent on muscle extract, a potent source of target-derived trophic support, was used to test the ability of peptide inhibitors of ICE to block motoneuron cell death (Milligan et al., J Neurobiology 25:1005-1016 (1994) and Block-Gallego et al., Development. 111:221-232 (1991)). The death of motoneurons deprived of trophic support in vitro requires new gene expression and occurs by apoptosis (Milligan et al., J. Neurobiology 25:1005-1016 (1994)). Motoneurons deprived of trophic support at the time of plating become irreversibly committed to undergo cell death after 16-18 hours (Milligan et al., J. Neurobiology 25:1005-1016 (1994)). […] When motoneurons are treated with peptide inhibitors in the absence of muscle extract for three days and subsequently supplemented on day three with muscle extract, they continue to survive, and by six days appear as healthy and differentiated as the motoneurons that were continuously supplied with muscle extract (FIGS. 12A, 12B, 15G). Thus, motoneurons rescued for 3 days by ICE inhibitors remain capable of responding to trophic factors present in muscle extract.
Methods for motoneuron cultures. […]

cervical motoneurons = test: Cervical motoneuron cell death in vivo; parameters: species or system chick; settings: for Pyknotic Cervical Motoneurons on E4.5: mean ±SD
Excerpt: The ability of the ICE inhibitors to block cell death in two classes of neurons whose naturally occurring death appears to be independent of target interaction was also studied. First, motoneurons in the cervical spinal cord undergo PCD between E4 and E5, with maximum levels occurring at E4.5.

Compound	Ki (ICE) [nM]	survival promoting effects on floorplate or dorsal spinal cord cells ([1]; compared to control animals)	Pyknotic Cells in the Early Neural Tube, Dorsal Spinal Cord ([1]; mean ±SD)	Pyknotic Cells in the Early Neural Tube, Floor Plate ([1]; mean ±SD)	Pyknotic Lumbar Motoneurons on E8 (lumbar motoneurons)	Healthy Motoneurons (lumbar) on E9 (lumbar motoneurons)	Pyknotic Motoneurons (lumbar) on E9 (lumbar motoneurons)	motoneuron death (chick spinal motoneurons)	survival promoting effects on cervical motoneurons (cervical motoneurons; compared to control or Ac-LLR-CHO treated animals)	Pyknotic Cervical Motoneurons on E4.5 (cervical motoneurons)
Ac-Y[dA]AD-aldehyde [Inhibitor C]	1500	–	–	–	–	–	–	–	–	–
Ac-Tyr-Val-Lys-Asp-CHO (Ac-YVKD-aldehyde; SMILES CC(=O)N[C@@H](Cc1ccc(O)cc1)C(=O)N[C@H](C(=O)N[C@@H](CCCCN)C(=O)N[C@H](C=O)CC(=O)O)C(C)C) [Inhibitor D]	3	–	–	–	–	–	–	–	–	–
Acetyl-Tyr-Val-Ala-Asp-chloromethylketone (Ac-YVAD-CH2Cl) [Ac-YVAD-CMK]	–	no survival promoting effects	1.372 ± 0.235	0.872 ± 0.201	216 ± 27	16,231 ± 755	200 ± 33	inhibitory effects on motoneuron death	no survival promoting effects	26.7 ± 2.2
CC(=O)N[C@@H](CC(C)C)C(=O)N[C@@H](CC(C)C)C(=O)N[C@H](C=O)CCCNC(=N)N [Leupeptin, Acetyl-Leu-Leu-Arg-aldehyde]	–	–	–	–	310 ± 40	14,117 ± 971	297 ± 51	–	–	32.5 ± 7.9
Cc1ccc(S(=O)(=O)NC(CCCCN)C(=O)CCl)cc1 (stereo not drawn) [Tos-Lys-CMK, n-tosyl-Lys-chloromethyl-ketone]	–	–	–	–	285 ± 31	13,257 ± 773	345 ± 39	–	–	–
